Results taken from patent US20230218632A1, “CYCLIC SULFONAMIDE DERIVATIVES AS TRAP1 MODULATORS AND USES THEREOF” (Amathus Therapeutics, Inc., priority 2020, published 2023).

What was measured:
TRAP1 enzyme = molecular target: T1, TRAP1 enzyme (Homo sapiens, UniProt Q12931); assay: ADP Glo assay (ATPase activity of TRAP1); type: biochemical
T1 sequence (Q12931 60-704): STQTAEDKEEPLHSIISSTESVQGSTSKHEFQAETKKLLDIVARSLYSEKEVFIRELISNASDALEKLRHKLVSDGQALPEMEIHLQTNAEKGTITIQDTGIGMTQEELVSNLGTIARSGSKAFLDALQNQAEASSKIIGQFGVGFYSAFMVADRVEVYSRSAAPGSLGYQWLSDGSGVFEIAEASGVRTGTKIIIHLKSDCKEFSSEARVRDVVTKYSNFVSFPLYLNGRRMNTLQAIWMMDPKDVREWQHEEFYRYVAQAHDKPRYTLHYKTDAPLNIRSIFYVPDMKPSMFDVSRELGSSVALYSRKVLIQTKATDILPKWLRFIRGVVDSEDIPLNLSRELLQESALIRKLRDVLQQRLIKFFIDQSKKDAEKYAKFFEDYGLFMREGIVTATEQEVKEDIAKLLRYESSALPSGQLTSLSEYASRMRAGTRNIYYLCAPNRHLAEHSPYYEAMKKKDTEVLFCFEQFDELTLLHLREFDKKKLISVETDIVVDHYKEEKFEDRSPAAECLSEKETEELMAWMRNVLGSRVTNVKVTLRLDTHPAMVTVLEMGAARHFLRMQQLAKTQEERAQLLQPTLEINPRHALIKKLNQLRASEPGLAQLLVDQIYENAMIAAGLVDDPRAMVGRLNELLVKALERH
Method in brief: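 150 nM TRAP1 preincubated 30 min at 37 °C with compound (0.79–100 µM) in 25 mM Pipes pH 7.5, 40 mM KCl, 0.05 mM MgCl2; reaction started with 20 µM ATP, 60 min at 37 °C. ADP quantified by ADP-Glo luminescence against an ATP/ADP standard curve; Emax and EC50 from sigmoidal fits of activation.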

mIMCD3 Pkd1 KO cells = assay: Mouse cell derived cyst assay; type: cell-based; settings: Pkd 1 KO mouse cell derived cyst forming assay; FIG. 6
Method: Mouse cell derived cyst assays were performed as described in Booij, Tijmen H et al., SLAS discovery: advancing life sciences R & D vol. 22,8 (2017): 974-984, or as described below.
Murine inner medullary collecting duct cell line (mIMCD3 Pkd1^-/- cells) • mIMCD3 Pkd1 KO cells were seeded in 384 wells plates in extracellular matrix. • 4 days after seeding, cultures were co-exposed to treatments and stimuli (2.5 µM forskolin); • After 72 h, cultures were fixed, stained for nuclei and actin cytoskeleton and imaged with 4x magnification; and • Image analysis of the 3D stack was done using Ominer™ image analysis software.

`O=C(Nc1ccc2c(c1)S(=O)(=O)N(c1ccc(Br)cc1)CCO2)c1cnc(-c2ccccc2)[nH]1` [Compound 1331, N-(2-(4-bromophenyl)-1,1-dioxido-3,4-dihydro-2H-benzo[b][1,4,5]oxathiazepin-8-yl)-2-phenyl-1H-imidazole-5-carboxamide] was tested, and the EC50 (TRAP1 enzyme; 150 nM Trap1, 20 µM ATP, concentration for half maximal activation, read-out: ADP GLO DRC: GeoMean EC50) was under 20 µM, the Emax (TRAP1 enzyme; maximal percent activation, read-out: ADP GLO DRC: Mean Emax) was 150 to 200% and the cyst formation (mIMCD3 Pkd1 KO cells) was “preventing cyst formation”.
